A short description of assay [1]: inhibitors of SNCA 5'UTR-driven translation, confirmation, luminescence, H4 neuroglioblastoma cells, dose confirmation (AID 2454).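 Further: H4 neuroglioblastoma cells carrying an alpha-synuclein 5'UTR luciferase reporter; potency for inhibition of the luciferase signal.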 Type of assay: functional, cell-based.
Assay [2] has as its target Serine/threonine-protein phosphatase (Candida dubliniensis (strain CD36 / CBS 7987 / NCPF 3949 / NRRLY-17841) (Yeast), UniProt B9W6M3). Description: calcineurin pathway inhibitors in yeast reporter, dose response, S. cerevisiae, CDRE-lacZ, luminescence, secondary (AID 2388).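 Further: yeast reporter cells carrying a calcineurin-responsive lacZ construct stimulated with calcium chloride; luminescent beta-galactosidase reporter signal in whole cells rather than isolated phosphatase activity; potency for inhibition where a drop in reporter signal means calcineurin blockade.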 The assay is classed as functional, cell-based.
Assay [3] can be described thus: C. albicans growth with fluconazole, confirmation, fluorescence, retest (AID 2467). The assay is classed as functional, cell-based.
Assay [4] in a line: inhibitors of SNCA 5'UTR-driven reporter translation, confirmation, H4 neuroglioma cells, luminescence (AID 1988). The assay is classed as functional, cell-based.
Assay [5] concerns the target ATP-dependent molecular chaperone HSP82 (Candida albicans (strain WO-1) (Yeast), UniProt C4YTQ8). Description: loss of DOC-induced GRE-beta-galactosidase reporter signal, dose response, Hsp90 inhibitor project, S. cerevisiae, luminescence (AID 2400).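 Further: beta-galactosidase luminescence from glucocorticoid response element reporter as proxy for Hsp90 function; inhibitor potency where signal loss means Hsp90 inhibition.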 The assay is classed as functional, cell-based.
The nature of assay [6]: NIH-3T3 fibroblast cytotoxicity, dose response, cytotoxicity control, cell-based, fluorescence, Alamar Blue, secondary assay (AID 2327).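 Further: NIH-3T3 mouse fibroblasts cultured with fluconazole at 8 µg/mL.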 The assay is classed as functional. (In general: The colour change of resazurin is a common sign of viable cells or microbes.)
The nature of the next assay: cells. Type of assay: functional, cell-based.
Assay [7] can be described thus: luciferase reporter signal reduction – luminescence, H4-C neuroglioblastoma cells, dose response (AID 2458).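 Further: H4 neuroglioblastoma cells stably carrying a luciferase reporter gene fusion.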 Type of assay: functional, cell-based. (In general: In a reporter assay the amount or activity of a reporter protein is the signal.)
In assay [8] the target is Heat shock protein HSP 90-alpha (Homo sapiens, UniProt P07900). Type of assay: functional, organism-based.
Assay [9] deals with Sphingosine 1-phosphate receptor 2 (Homo sapiens, UniProt O95136). Description: Dose Response Cell Based Assay for Agonists of the S1P2 Receptor of Purchased Analogues. [Related pubchem assays: 729, 843, 854, 736 ]. Type of assay: functional.
Assay [10] has as its target Sphingosine 1-phosphate receptor 3 (Homo sapiens, UniProt Q99500). Nature of the assay: Dose response cell-based high throughput screening assay for antagonists of the Sphingosine 1-Phosphate Receptor 3 (S1P3). [Related pubchem assays: 1429, 485 ]. The assay is classed as functional.
Assay [11] has as its target 5-hydroxytryptamine receptor 1E (Homo sapiens, UniProt P28566). Description: Counterscreen assay for S1P3 antagonists: Dose response cell-based high throughput screening assay to identify antagonists of the 5-Hydroxytryptamine Receptor Subtype 1E (5HT1E). [Related pubchem assays: 1429, 485 ]. The assay is classed as functional. Background: The purpose of a counterscreen is to sort out artefacts and off-target activity.

The target of the next assay is Leucine aminopeptidase (Plasmodium falciparum 3D7, UniProt Q8IL11). Description: P. falciparum M17LAP inhibitors, primary screen, biochemical, fluorogenic H-Leu-NHMec substrate, 1536-well (AID 1619). The assay is classed as functional.
Another assay has as its target Procathepsin L (Homo sapiens, UniProt P07711). Nature of the assay: cathepsin L inhibitors, dose response, counter-screen for M1/M17 aminopeptidase inhibitor project, biochemical, QFRET, 1536-well (AID 2214).
The target of another assay is T1, Aspartyl aminopeptidase (Plasmodium falciparum 3D7, UniProt Q8I2J3).
T1 sequence (Q8I2J3 whole entry): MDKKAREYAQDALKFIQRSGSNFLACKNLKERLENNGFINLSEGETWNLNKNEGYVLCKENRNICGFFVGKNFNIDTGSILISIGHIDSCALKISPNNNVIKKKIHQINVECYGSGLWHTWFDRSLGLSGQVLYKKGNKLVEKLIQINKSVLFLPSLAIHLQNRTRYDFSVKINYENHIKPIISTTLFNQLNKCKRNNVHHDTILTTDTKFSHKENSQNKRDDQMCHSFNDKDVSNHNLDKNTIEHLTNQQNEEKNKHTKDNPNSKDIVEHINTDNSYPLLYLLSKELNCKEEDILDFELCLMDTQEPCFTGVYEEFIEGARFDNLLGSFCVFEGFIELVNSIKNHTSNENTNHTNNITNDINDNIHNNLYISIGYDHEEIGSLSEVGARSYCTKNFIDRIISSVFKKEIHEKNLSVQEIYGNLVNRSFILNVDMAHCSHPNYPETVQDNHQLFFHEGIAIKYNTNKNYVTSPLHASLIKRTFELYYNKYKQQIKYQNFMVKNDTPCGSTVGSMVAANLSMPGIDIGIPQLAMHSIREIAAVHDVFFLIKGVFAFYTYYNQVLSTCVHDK
Nature of the assay: Counterscreen for inhibitors of M1 and M17 aminopeptidases: QFRET-based biochemical high throughput dose response assay for inhibitors of the Plasmodium falciparum M18 Aspartyl Aminopeptidase (PFM18AAP). [Related PubChem assays: 1619 (Screening assay (M17LAP inhibitors).), 1445 (Screening assay (M1AAP inhibitors).)].

In assay [12] the target is Mothers against decapentaplegic homolog 3 (Homo sapiens, UniProt P84022). Description: Smad3 binding inhibitors, lysate ELISA, dose response, cell lysate, secondary confirmation, chemiluminescent ELISA, HEK293 lysate (AID 1058). The assay is classed as functional.

The source made the active and inactive calls.

The EC50 is the midpoint of the concentration-response curve. Broadly, the AC50 is the midpoint of the concentration-response curve, whichever way the signal moves. As a reminder, the IC50 is the concentration at which inhibition is half-maximal.

ATP-dependent molecular chaperone HSP82, sequence (C4YTQ8 whole entry): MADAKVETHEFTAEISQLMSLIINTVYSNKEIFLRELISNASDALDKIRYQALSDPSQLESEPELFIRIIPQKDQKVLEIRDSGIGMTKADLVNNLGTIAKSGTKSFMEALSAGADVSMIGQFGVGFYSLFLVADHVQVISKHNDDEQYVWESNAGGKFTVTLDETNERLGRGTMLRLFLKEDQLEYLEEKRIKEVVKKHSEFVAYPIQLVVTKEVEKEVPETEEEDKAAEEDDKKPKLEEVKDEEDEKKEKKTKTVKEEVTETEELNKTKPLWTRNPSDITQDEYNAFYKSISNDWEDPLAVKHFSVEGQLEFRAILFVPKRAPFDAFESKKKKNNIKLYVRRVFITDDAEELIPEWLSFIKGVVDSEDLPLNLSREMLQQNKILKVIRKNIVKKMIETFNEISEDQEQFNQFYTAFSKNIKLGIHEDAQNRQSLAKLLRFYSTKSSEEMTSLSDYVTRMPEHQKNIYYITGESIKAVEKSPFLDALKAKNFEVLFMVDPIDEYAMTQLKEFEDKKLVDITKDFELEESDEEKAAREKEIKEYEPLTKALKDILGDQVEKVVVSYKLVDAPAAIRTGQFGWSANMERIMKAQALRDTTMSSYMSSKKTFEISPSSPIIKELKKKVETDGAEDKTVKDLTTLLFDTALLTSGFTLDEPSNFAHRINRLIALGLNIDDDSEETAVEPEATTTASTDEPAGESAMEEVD
Serine/threonine-protein phosphatase, sequence (B9W6M3 whole entry): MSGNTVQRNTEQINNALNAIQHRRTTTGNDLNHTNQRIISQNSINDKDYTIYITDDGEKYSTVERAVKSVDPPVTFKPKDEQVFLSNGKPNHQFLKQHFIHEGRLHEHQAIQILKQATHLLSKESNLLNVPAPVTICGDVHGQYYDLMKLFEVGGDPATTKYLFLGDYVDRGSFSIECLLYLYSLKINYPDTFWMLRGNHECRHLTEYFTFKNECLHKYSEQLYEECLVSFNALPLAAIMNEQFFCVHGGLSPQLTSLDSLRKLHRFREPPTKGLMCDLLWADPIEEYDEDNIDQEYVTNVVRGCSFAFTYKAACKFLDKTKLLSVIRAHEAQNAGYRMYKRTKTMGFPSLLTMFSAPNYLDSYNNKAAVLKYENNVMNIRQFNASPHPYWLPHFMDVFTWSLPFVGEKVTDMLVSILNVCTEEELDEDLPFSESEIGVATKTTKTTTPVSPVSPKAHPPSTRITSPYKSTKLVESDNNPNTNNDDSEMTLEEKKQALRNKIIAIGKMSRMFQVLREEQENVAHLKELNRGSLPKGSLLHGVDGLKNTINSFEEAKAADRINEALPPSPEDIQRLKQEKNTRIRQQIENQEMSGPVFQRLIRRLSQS
Sphingosine 1-phosphate receptor 2, sequence (O95136 whole entry): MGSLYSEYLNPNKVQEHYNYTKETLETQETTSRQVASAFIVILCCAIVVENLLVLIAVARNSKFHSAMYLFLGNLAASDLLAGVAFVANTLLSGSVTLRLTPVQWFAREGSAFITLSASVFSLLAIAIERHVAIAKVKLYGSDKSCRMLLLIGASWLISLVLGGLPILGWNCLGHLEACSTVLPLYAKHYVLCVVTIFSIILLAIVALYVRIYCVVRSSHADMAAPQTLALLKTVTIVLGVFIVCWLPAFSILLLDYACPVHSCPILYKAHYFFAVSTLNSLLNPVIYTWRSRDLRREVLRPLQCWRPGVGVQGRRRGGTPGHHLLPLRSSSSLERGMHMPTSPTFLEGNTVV
5-hydroxytryptamine receptor 1E, sequence (P28566 whole entry): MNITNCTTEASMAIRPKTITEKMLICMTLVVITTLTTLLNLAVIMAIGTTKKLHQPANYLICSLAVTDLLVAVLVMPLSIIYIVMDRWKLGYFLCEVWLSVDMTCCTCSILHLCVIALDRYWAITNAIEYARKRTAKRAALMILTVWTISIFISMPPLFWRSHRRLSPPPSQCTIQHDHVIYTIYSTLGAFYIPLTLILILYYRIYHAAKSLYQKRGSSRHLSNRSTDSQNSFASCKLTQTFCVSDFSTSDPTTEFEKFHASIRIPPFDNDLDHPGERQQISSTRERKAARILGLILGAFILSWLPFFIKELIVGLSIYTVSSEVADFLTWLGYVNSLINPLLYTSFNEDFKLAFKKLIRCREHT
Mothers against decapentaplegic homolog 3, sequence (P84022 whole entry): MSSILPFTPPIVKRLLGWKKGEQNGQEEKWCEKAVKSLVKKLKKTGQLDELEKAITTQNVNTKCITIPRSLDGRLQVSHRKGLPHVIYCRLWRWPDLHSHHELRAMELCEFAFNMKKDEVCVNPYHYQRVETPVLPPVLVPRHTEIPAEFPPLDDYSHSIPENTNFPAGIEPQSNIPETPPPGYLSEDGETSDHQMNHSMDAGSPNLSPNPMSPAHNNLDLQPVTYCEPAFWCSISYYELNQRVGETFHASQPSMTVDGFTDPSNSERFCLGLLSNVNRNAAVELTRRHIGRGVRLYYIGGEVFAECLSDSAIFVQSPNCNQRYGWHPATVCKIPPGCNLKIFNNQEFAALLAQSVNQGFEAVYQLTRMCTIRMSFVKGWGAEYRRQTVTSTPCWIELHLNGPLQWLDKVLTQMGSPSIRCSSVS
Leucine aminopeptidase, sequence (Q8IL11 whole entry): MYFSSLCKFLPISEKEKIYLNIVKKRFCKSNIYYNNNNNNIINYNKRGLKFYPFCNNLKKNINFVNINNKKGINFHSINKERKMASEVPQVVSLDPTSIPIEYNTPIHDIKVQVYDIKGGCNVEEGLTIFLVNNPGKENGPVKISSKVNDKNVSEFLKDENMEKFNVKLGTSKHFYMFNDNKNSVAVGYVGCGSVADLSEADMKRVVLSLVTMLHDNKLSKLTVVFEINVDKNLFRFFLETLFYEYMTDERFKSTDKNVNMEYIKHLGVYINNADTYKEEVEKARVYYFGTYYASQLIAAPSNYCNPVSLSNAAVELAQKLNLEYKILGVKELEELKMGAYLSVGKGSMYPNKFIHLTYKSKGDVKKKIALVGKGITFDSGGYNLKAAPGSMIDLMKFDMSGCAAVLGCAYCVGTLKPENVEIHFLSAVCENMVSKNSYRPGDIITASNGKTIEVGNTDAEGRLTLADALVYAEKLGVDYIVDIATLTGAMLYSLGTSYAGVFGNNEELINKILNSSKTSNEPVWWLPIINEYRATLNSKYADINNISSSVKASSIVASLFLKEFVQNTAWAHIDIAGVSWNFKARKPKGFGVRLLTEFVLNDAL
Sphingosine 1-phosphate receptor 3, sequence (Q99500 whole entry): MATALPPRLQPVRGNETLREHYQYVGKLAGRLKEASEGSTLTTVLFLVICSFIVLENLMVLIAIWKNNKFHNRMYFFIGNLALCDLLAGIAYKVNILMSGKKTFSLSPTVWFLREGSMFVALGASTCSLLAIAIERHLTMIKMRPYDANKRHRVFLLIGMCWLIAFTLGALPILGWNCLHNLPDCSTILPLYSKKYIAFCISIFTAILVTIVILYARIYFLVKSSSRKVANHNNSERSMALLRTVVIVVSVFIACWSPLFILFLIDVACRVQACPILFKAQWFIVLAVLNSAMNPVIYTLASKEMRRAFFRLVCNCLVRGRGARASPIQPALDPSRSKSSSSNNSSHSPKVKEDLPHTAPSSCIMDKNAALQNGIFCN
Procathepsin L, sequence (P07711 whole entry): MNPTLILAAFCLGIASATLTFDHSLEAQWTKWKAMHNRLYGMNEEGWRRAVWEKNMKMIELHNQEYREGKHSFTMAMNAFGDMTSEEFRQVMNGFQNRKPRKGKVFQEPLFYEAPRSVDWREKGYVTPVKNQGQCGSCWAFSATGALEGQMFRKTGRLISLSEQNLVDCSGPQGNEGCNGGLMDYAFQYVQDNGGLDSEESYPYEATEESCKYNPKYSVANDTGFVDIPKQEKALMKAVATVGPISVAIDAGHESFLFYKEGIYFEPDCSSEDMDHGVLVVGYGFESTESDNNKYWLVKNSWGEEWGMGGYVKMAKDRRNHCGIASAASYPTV

For the molecule `Oc1c(C(Nc2nccs2)c2ccc(C(F)(F)F)cc2)ccc2cccnc12` (stereo unspecified), the EC50 in [1] is > 12 µM (not active); in assay [2] it was > 180 µM (inactive); in [3] it was 1.01 µM (active); in assay [4], < 0.1 µM (active); in [5] it was > 160 µM (inactive); in assay [6], 11.2 µM (active). Moreover, the EC50 is 1.04 µM (active) in the assay “cells” and 8.36 µM (active) in assay [7]. Moreover, the AC50 in assay [8] is 3.69 µM (active).

`Cc1cc(C(=O)Cn2cc(C(F)(F)F)ccc2=O)c(C)n1Cc1ccccc1`: the concentration giving a half-maximal response (EC50) in [9] is 0.723 µM (active).

On to `O=C(Nc1ccc(Br)cc1)C(c1ccccc1)c1ccccc1`, for which the IC50 was 1.33 µM (active) in assay [10] and > 50 µM (not active) in assay [11].

In the case of `CCN(CC)c1ccc(NC(=O)CSc2nc(C)cc(O)n2)cc1`, the IC50 on Leucine aminopeptidase is 3.06 µM (active); against Procathepsin L, > 59.6 µM (not active); on Aspartyl aminopeptidase, > 73.5 µM (not active).

As to `COc1cc(C(c2cc3c(cc2O)OCO3)N2CCCCC2)cc(OC)c1OC` (stereo unspecified), the IC50 in [12] is recorded as 12.5 µM (not active).
